Converted amounts (≈) assume the structure as drawn.
What was measured:
Staphylococcus aureus [1] = experiment: Antimicrobial activity against Staphylococcus aureus ATCC 29213 incubated overnight under aerobic condition by microbroth dilution method; assay type: functional
Staphylococcus aureus [2] = experiment: Antimicrobial activity against Staphylococcus aureus USA300 incubated overnight under aerobic condition by microbroth dilution method; assay type: functional
Staphylococcus aureus [3] = experiment: Antimicrobial activity against Staphylococcus aureus USA300 deficient in ClpP incubated overnight under aerobic condition by microbroth dilution method; assay type: functional
Streptococcus pyogenes = experiment: Antimicrobial activity against Streptococcus pyogenes ATCC 700294 incubated overnight under aerobic condition by microbroth dilution method; assay type: functional
Staphylococcus aureus [4] = experiment: Antimicrobial activity against Staphylococcus aureus NRS70 incubated overnight under aerobic condition by microbroth dilution method; assay type: functional
Vero = experiment: Cytotoxicity in African green monkey Vero cells assessed as reduction in cell viability incubated for 72 hrs by cell-titer-Glo luminescent cell viability assay; assay type: cell-based; conditions: Chlorocebus sabaeus
Streptococcus pneumoniae = experiment: Antimicrobial activity against Streptococcus pneumoniae R6 incubated overnight under aerobic condition by microbroth dilution method; assay type: functional
[5] = target: T1, ATP-dependent Clp protease proteolytic subunit (Staphylococcus aureus (strain NCTC 8325), UniProt Q2G036); experiment: Displacement of ADEP2591 from Staphylococcus aureus ClpP expressed in Escherichia coli BL21 (DE3) incubated for 120 mins by fluorescence polarization assay
T1 sequence (Q2G036 whole entry): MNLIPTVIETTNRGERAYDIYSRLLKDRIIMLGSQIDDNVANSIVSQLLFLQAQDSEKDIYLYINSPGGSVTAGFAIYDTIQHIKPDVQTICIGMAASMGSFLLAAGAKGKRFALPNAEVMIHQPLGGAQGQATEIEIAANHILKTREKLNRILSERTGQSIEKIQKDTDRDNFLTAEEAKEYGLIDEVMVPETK

Bacillus subtilis = experiment: Antimicrobial activity against Bacillus subtilis ATCC 23857 incubated overnight under aerobic condition by microbroth dilution method; assay type: functional

Row | Structure (SMILES) | MIC (Staphylococcus aureus [1]) [µM] | MIC (Staphylococcus aureus [2]) [µM] | MIC (Staphylococcus aureus [3]) [µM] | MIC (Streptococcus pyogenes) [µM] | MIC (Staphylococcus aureus [4]) [µM] | other results
1 | C[C@@H]1C[C@H]2C(=O)O[C@@H](C)[C@H](NC(=O)[C@H](Cc3cc(F)cc(F)c3)NC(=O)Nc3ccc(OC(F)(F)F)cc3)C(=O)N3CCC[C@H]3C(=O)N3CCCC[C@H]3C(=O)N[C@@H](C)C(=O)N2C1 | 0.05 (≈ 0.0439 µg/mL) | 0.05 (≈ 0.0439 µg/mL) | – | – | – | –
2 | Cc1ccc(NC(=O)N[C@@H](Cc2ccccc2)C(=O)N[C@H]2COC(=O)[C@@H]3C[C@H](C)CN3C(=O)[C@H](C)NC(=O)[C@@H]3CCCCN3C(=O)[C@@H]3CCCN3C2=O)cc1 | – | – | > 200 | – | – | –
3 | Cc1ccc(NC(=O)N[C@@H](Cc2cc(F)cc(F)c2)C(=O)N[C@H]2COC(=O)[C@@H]3C[C@H](F)CN3C(=O)[C@H](C)NC(=O)[C@@H]3CCCCN3C(=O)[C@@H]3CCCN3C2=O)cc1 | – | – | > 200 | – | – | –
4 | C[C@@H]1NC(=O)[C@@H]2CCCCN2C(=O)[C@@H]2CCCN2C(=O)[C@@H](NC(=O)[C@H](Cc2cc(F)cc(F)c2)NC(=O)Nc2ccc3c(c2)OCO3)[C@H](C)OC(=O)[C@@H]2CCCN2C1=O | 3.1 (≈ 2.55 µg/mL) | 3.1 (≈ 2.55 µg/mL) | – | < 0.1 | 3.1 (≈ 2.55 µg/mL) | –
5 | Cc1ccc(NC(=O)N[C@@H](Cc2cc(F)cc(F)c2)C(=O)N[C@H]2COC(=O)[C@@H]3CC(C)(C)CN3C(=O)[C@H](C)NC(=O)[C@@H]3CCCCN3C(=O)[C@@H]3CCCN3C2=O)cc1 | – | – | 100 (≈ 80.8 µg/mL) | – | – | –
6 | C[C@H]1C[C@H]2C(=O)O[C@@H](C)[C@H](NC(=O)[C@H](Cc3cc(F)cc(F)c3)NC(=O)Nc3ccc4c(c3)OCO4)C(=O)N3CCC[C@H]3C(=O)N3CCCC[C@H]3C(=O)N[C@@H](C)C(=O)N2C1 | 0.8 (≈ 0.67 µg/mL) | 0.8 (≈ 0.67 µg/mL) | – | – | – | –
7 | CCc1ccc(NC(=O)N[C@@H](Cc2cc(F)cc(F)c2)C(=O)N[C@@H]2C(=O)N3CCC[C@H]3C(=O)N(C)[C@@H](C)C(=O)N[C@@H](C)C(=O)N3CCC[C@H]3C(=O)O[C@H]2C)cc1 | 0.2 (≈ 0.156 µg/mL) | 0.2 (≈ 0.156 µg/mL) | 100 (≈ 78.2 µg/mL) | – | 0.2 (≈ 0.156 µg/mL) | –
8 | Cc1ccc(NC(=O)N[C@@H](Cc2cc(F)cc(F)c2)C(=O)N[C@@H]2C(=O)N3CCC[C@H]3C(=O)N3CCCC[C@H]3C(=O)N[C@@H](C)C(=O)N3C[C@@H](C)C[C@H]3C(=O)O[C@H]2C)cc1 | – | – | 100 (≈ 80.8 µg/mL) | 0.4 (≈ 0.323 µg/mL) | – | –
9 | Cc1ccc(NC(=O)N[C@@H](Cc2cc(F)cc(F)c2)C(=O)N[C@@H]2C(=O)N3CCC[C@H]3C(=O)N3CCCC[C@H]3C(=O)N[C@@H](C)C(=O)N3C[C@H](C)C[C@H]3C(=O)O[C@H]2C)cc1 | 0.05 (≈ 0.0404 µg/mL) | 0.05 (≈ 0.0404 µg/mL) | 100 (≈ 80.8 µg/mL) | 0.2 (≈ 0.162 µg/mL) | – | IC50 (Vero): 40 µM; MIC (Streptococcus pneumoniae): 0.05 µM (≈ 0.0404 µg/mL)
10 | C[C@@H]1NC(=O)[C@H](C)N(C)C(=O)[C@@H]2CCCN2C(=O)[C@@H](NC(=O)[C@H](Cc2cc(F)cc(F)c2)NC(=O)Nc2ccc(OC(F)(F)F)cc2)[C@H](C)OC(=O)[C@@H]2CCCN2C1=O | 0.2 (≈ 0.168 µg/mL) | 0.2 (≈ 0.168 µg/mL) | 100 (≈ 83.8 µg/mL) | – | 0.2 (≈ 0.168 µg/mL) | –
11 | C[C@H]1C[C@H]2C(=O)O[C@@H](C)[C@H](NC(=O)[C@H](Cc3cc(F)cc(F)c3)NC(=O)Nc3ccc(OC(F)(F)F)cc3)C(=O)N3CCC[C@H]3C(=O)N(C)[C@@H]([C@H](C)O)C(=O)N[C@@H](C)C(=O)N2C1 | – | – | – | – | – | IC50 (Vero): 25.4 µM
12 | C[C@@H]1C[C@H]2C(=O)OC[C@H](NC(=O)[C@H](Cc3ccccc3)NC(=O)Nc3ccc(OC(F)(F)F)cc3)C(=O)N3CCC[C@H]3C(=O)N3CCCC[C@H]3C(=O)N[C@@H](C)C(=O)N2C1 | – | – | – | 0.1 (≈ 0.0828 µg/mL) | – | –
13 | C[C@@H]1C[C@H]2C(=O)O[C@@H](C)[C@H](NC(=O)[C@H](Cc3cc(F)cc(F)c3)NC(=O)Nc3ccc(OC(F)(F)F)cc3)C(=O)N3CCC[C@H]3C(=O)N(C)[C@@H]([C@H](C)O)C(=O)N[C@@H](C)C(=O)N2C1 | – | – | – | – | – | IC50 (Vero): 23.9 µM; IC50 [5]: 7.53 µM
14 | CCc1cccc(NC(=O)N[C@@H](Cc2ccccc2)C(=O)N[C@H]2COC(=O)[C@@H]3C[C@@H](C)CN3C(=O)[C@H](C)NC(=O)[C@@H]3CCCCN3C(=O)[C@@H]3CCCN3C2=O)c1 | 0.6 (≈ 0.463 µg/mL) | – | – | – | 0.6 (≈ 0.463 µg/mL) | –
15 | C[C@H]1C[C@H]2C(=O)OC[C@H](NC(=O)[C@H](Cc3cc(F)cc(F)c3)NC(=O)Nc3ccc4c(c3)OCO4)C(=O)N3CCC[C@H]3C(=O)N3CCCC[C@H]3C(=O)N[C@@H](C)C(=O)N2C1 | 3.1 (≈ 2.55 µg/mL) | 3.1 (≈ 2.55 µg/mL) | – | – | – | –
16 | Cc1ccc(NC(=O)N[C@@H](Cc2cc(F)cc(F)c2)C(=O)N[C@H]2COC(=O)[C@@H]3C[C@@H](F)CN3C(=O)[C@H](C)NC(=O)[C@@H]3CCCCN3C(=O)[C@@H]3CCCN3C2=O)cc1 | – | – | > 200 | – | – | –
17 | Cc1ccc(NC(=O)N[C@@H](Cc2cc(F)cc(F)c2)C(=O)N[C@@H]2C(=O)N3CCC[C@H]3C(=O)N(C)[C@@H]([C@H](C)O)C(=O)N[C@@H](C)C(=O)N3C[C@H](C)C[C@H]3C(=O)O[C@H]2C)cc1 | 0.05 (≈ 0.0406 µg/mL) | 0.1 (≈ 0.0812 µg/mL) | – | 0.1 (≈ 0.0812 µg/mL) | – | MIC (Streptococcus pneumoniae): 0.02 µM (≈ 0.0162 µg/mL); MIC (Bacillus subtilis): 0.05 µM (≈ 0.0406 µg/mL)
18 | C[C@H]1C[C@H]2C(=O)O[C@@H](C)[C@H](NC(=O)[C@H](Cc3cc(F)cc(F)c3)NC(=O)Nc3ccc(C(F)(F)F)cc3)C(=O)N3CCC[C@H]3C(=O)N3CCCC[C@H]3C(=O)N[C@@H](C)C(=O)N2C1 | – | – | – | 1.5 (≈ 1.29 µg/mL) | – | –
19 | Cc1ccc(NC(=O)N[C@@H](Cc2cc(F)cc(F)c2)C(=O)N[C@@H]2C(=O)N3CCC[C@H]3C(=O)N3CCOC[C@H]3C(=O)N[C@@H](C)C(=O)N3C[C@H](C)C[C@H]3C(=O)O[C@H]2C)cc1 | 0.003 (≈ 0.00243 µg/mL) | – | > 200 | 0.02 (≈ 0.0162 µg/mL) | – | MIC (Streptococcus pneumoniae): 0.002 µM (≈ 0.00162 µg/mL)
20 | C[C@H]1C[C@H]2C(=O)O[C@@H](C)[C@H](NC(=O)[C@H](Cc3cc(F)cc(F)c3)NC(=O)Nc3ccc(OC(F)(F)F)cc3)C(=O)N3C[C@H](O)C[C@H]3C(=O)N(C)[C@@H](C)C(=O)N[C@@H](C)C(=O)N2C1 | 0.1 (≈ 0.0868 µg/mL) | – | 100 (≈ 86.8 µg/mL) | – | 0.1 (≈ 0.0868 µg/mL) | –
21 | COc1cccc(NC(=O)N[C@@H](Cc2ccccc2)C(=O)N[C@H]2COC(=O)[C@@H]3C[C@@H](C)CN3C(=O)[C@H](C)NC(=O)[C@@H]3CCCCN3C(=O)[C@@H]3CCCN3C2=O)c1 | 3.13 (≈ 2.42 µg/mL) | – | – | – | 3.13 (≈ 2.42 µg/mL) | –
22 | Cc1ccc(NC(=O)N[C@@H](Cc2cc(F)cc(F)c2)C(=O)N[C@H]2COC(=O)[C@@H]3C[C@H](C)CN3C(=O)[C@H](C)NC(=O)[C@@H]3CCCCN3C(=O)[C@@H]3CCCN3C2=O)cc1 | – | – | 100 (≈ 79.4 µg/mL) | – | – | –
23 | C[C@H]1C[C@H]2C(=O)O[C@@H](C)[C@H](NC(=O)[C@H](Cc3cc(F)cc(F)c3)NC(=O)Nc3ccc(OC(F)(F)F)cc3)C(=O)N3CCC[C@H]3C(=O)N(C)[C@@H](C)C(=O)N[C@@H](C)C(=O)N2C1 | 0.05 (≈ 0.0426 µg/mL) | 0.1 (≈ 0.0852 µg/mL) | 25 (≈ 21.3 µg/mL) | 0.23 (≈ 0.196 µg/mL) | 0.05 (≈ 0.0426 µg/mL) | MIC (Bacillus subtilis): 0.01 µM (≈ 0.00852 µg/mL)
24 | CCc1ccc(NC(=O)N[C@@H](Cc2cc(F)cc(F)c2)C(=O)N[C@@H]2C(=O)N3CCC[C@H]3C(=O)N(C)[C@@H]([C@H](C)O)C(=O)N[C@@H](C)C(=O)N3C[C@H](C)C[C@H]3C(=O)O[C@H]2C)cc1 | – | – | 100 (≈ 82.6 µg/mL) | – | – | IC50 (Vero): 24.9 µM
25 | CCc1ccc(NC(=O)N[C@@H](Cc2cc(F)cc(F)c2)C(=O)N[C@@H]2C(=O)N3CCC[C@H]3C(=O)N(C)[C@@H]([C@H](C)O)C(=O)N[C@@H](C)C(=O)N3C[C@@H](C)C[C@H]3C(=O)O[C@H]2C)cc1 | – | – | 100 (≈ 82.6 µg/mL) | – | – | IC50 (Vero): 33.8 µM
26 | CCc1ccc(NC(=O)N[C@@H](Cc2cc(F)cc(F)c2)C(=O)N[C@@H]2C(=O)N3CCC[C@H]3C(=O)N(C)[C@@H](C)C(=O)N[C@@H](C)C(=O)N3C[C@@H](C)C[C@H]3C(=O)O[C@H]2C)cc1 | 0.1 (≈ 0.0796 µg/mL) | 0.1 (≈ 0.0796 µg/mL) | – | – | – | –
27 | C[C@H]1C[C@H]2C(=O)OC[C@H](NC(=O)[C@H](Cc3ccccc3)NC(=O)Nc3ccc(OC(F)(F)F)cc3)C(=O)N3CCC[C@H]3C(=O)N3CCCC[C@H]3C(=O)N[C@@H](C)C(=O)N2C1 | 0.4 (≈ 0.331 µg/mL) | – | – | – | 0.4 (≈ 0.331 µg/mL) | –
28 | O=C(N[C@H](CO)[C@H](O)c1ccc([N+](=O)[O-])cc1)C(Cl)Cl [CHLORAMPHENICOL] | – | 3.1 (≈ 1 µg/mL) | – | – | 3.1 (≈ 1 µg/mL) | –
29 | NC[C@H]1O[C@H](O[C@H]2[C@H](O)[C@@H](O[C@H]3O[C@H](CO)[C@@H](O)[C@H](N)[C@H]3O)[C@H](N)C[C@@H]2N)[C@H](O)[C@@H](O)[C@@H]1O [KANAMYCIN] | 1.56 (≈ 0.756 µg/mL) | – | – | 12.5 (≈ 6.06 µg/mL) | – | MIC (Bacillus subtilis): 0.1 µM (≈ 0.0485 µg/mL)
30 | CN[C@@H]1[C@H](O)[C@H](NC)[C@H]2O[C@@]3(O)C(=O)C[C@@H](C)O[C@H]3O[C@@H]2[C@H]1O [SPECTINOMYCIN] | 50 (≈ 16.6 µg/mL) | 50 (≈ 16.6 µg/mL) | – | – | – | –

Reference: ChEMBL document CHEMBL4476873, “Substituted urea depsipeptide analogs as activators of the clpp endopeptidase” (2018)
